Source: patent US11236087B2, “Highly active pyrazolo-piperidine substituted indole-2-carboxamides active against the hepatitis B virus (HBV)” (AiCuris GmbH & Co. KG, priority 2017, dated 2022)

What was measured:
HBV = experiment: Determination of HBV DNA from the supernatants of HepAD38 cells (anti-HBV activity); format: cell-based, hepatitis B virus; details: Hepatitis B virus, 144 h; HBV DNA in HepAD38 supernatant, day 6, qPCR; read-out: Cell Activity (EC50)
In short: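 HepAD38 cells, tetracycline withdrawn to induce HBV, treated with serial half-log compound dilutions; on day 6 HBV DNA purified from filtered supernatant and quantified by real-time PCR against HBV plasmid standards; EC50 from relative copy numbers by non-linear regression, three experiments in triplicate.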

HBV core protein = target: T1, HBV core protein (UniProt P03146); experiment: Biochemical capsid assembly assay (fluorescence quenching); parameters: species or system hepatitis B virus; details: read-out: Assembly Activity (IC50); BODIPY-FL labelled core protein, 300 μM NaCl, read 6 min after start
T1 construct: fused on or other part: BODIPY-FL maleimide label on the C-terminal Cys150
T1 sequence (P03146 whole entry, looked up, the tested form may be a part): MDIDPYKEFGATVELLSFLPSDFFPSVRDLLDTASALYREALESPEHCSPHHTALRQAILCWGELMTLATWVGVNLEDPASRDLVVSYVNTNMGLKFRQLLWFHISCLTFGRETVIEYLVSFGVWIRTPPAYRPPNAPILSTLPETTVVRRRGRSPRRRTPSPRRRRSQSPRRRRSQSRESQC
In short: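 Purified E. coli-expressed HBV core protein (aa 1-149 plus Cys150), BODIPY-FL maleimide-labelled, at 1.0-2.0 μM in 50 mM HEPES pH 7.5 with 0.5% DMSO was used. Compounds were tested at 8 concentrations (0.5-log dilutions from 100, 31.6 or 10 μM). Assembly was started with NaCl ([…]), and fluorescence quenching was read after 6 min (ex 477/em 525 nm). EC50 was determined by non-linear regression.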

[1] = Cell viability assay (AlamarBlue) in HepAD38 cells; details: human

Row | Structure (SMILES) | EC50 (HBV) [µM] | IC50 (HBV core protein) [µM] | CC50 at 6 days [1] [µM]
1 | CON(C)C(=O)c1n[nH]c2c1CN(C(=O)c1cc3c(C(F)(F)F)cccc3[nH]1)CC2 [Example 129, N-methoxy-N-methyl-5-[4-(trifluoromethyl)-1H-indole-2-carbonyl]-1H,4H,5H,6H,7H-pyrazolo[4,3-c]pyridine-3-carboxamide] | < 1 | < 5 | > 32
2 | CON(C)C(=O)c1n[nH]c2c1CN(C(=O)c1cc3c(C)cccc3[nH]1)CC2 [Example 131, N-methoxy-N-methyl-5-(4-methyl-1H-indole-2-carbonyl)-1H,4H,5H,6H,7H-pyrazolo[4,3-c]pyridine-3-carboxamide] | < 1 | < 5 | > 100
3 | O=C(c1cc2ccccc2[nH]1)N1CCc2[nH]nc(C(=O)N3CCCO3)c2C1 [Example 133, 2-[3-(1,2-oxazolidine-2-carbonyl)-1H,4H,5H,6H,7H-pyrazolo[4,3-c]pyridine-5-carbonyl]-1H-indole] | < 100 | < 5 | > 100
4 | Cc1cc(F)cc2[nH]c(C(=O)N3CCc4[nH]ncc4C3)cc12 [Example 135, 6-fluoro-4-methyl-2-{1H,4H,5H,6H,7H-pyrazolo[4,3-c]pyridine-5-carbonyl}-1H-indole] | < 1 | < 5 | > 100
5 | Cc1cccc2[nH]c(C(=O)N3CCc4[nH]ncc4C3)cc12 [Example 136, 4-methyl-2-{1H,4H,5H,6H,7H-pyrazolo[4,3-c]pyridine-5-carbonyl}-1H-indole] | < 1 | < 5 | > 100
6 | CON(C)C(=O)c1n[nH]c2c1CN(C(=O)c1cc3ccccc3[nH]1)CC2 [Example 138, 5-(1H-indole-2-carbonyl)-N-methoxy-N-methyl-1H,4H,5H,6H,7H-pyrazolo[4,3-c]pyridine-3-carboxamide] | < 1 | < 5 | > 100
7 | CCOC(=O)c1n[nH]c2c1CN(C(=O)c1cc3ccccc3[nH]1)CC2 [Example 140, ethyl 5-(1H-indole-2-carbonyl)-1H,4H,5H,6H,7H-pyrazolo[4,3-c]pyridine-3-carboxylate] | < 100 | < 5 | > 100
8 | O=C(c1cc2c(Cl)cc(F)cc2[nH]1)N1CCc2[nH]ncc2C1 [Example 142, 4-chloro-6-fluoro-2-{1H,4H,5H,6H,7H-pyrazolo[4,3-c]pyridine-5-carbonyl}-1H-indole] | < 1 | < 5 | > 100
9 | C[C@H]1CCCCN1C(=O)c1n[nH]c2c1CN(C(=O)c1cc3ccccc3[nH]1)CC2 [Example 147, 2-{3-[(2S)-2-methylpiperidine-1-carbonyl]-1H,4H,5H,6H,7H-pyrazolo[4,3-c]pyridine-5-carbonyl}-1H-indole] | < 1 | 5 to 10 | > 10
10 | C[C@@H]1CCCCN1C(=O)c1n[nH]c2c1CN(C(=O)c1cc3ccccc3[nH]1)CC2 [Example 148, 2-{3-[(2R)-2-methylpiperidine-1-carbonyl]-1H,4H,5H,6H,7H-pyrazolo[4,3-c]pyridine-5-carbonyl}-1H-indole] | 1 to 25 | 5 to 10 | > 10
11 | CC(=O)NCCN(C)C(=O)c1n[nH]c2c1CN(C(=O)c1cc3ccccc3[nH]1)CC2 [Example 149, N-(2-{1-[5-(1H-indole-2-carbonyl)-1H,4H,5H,6H,7H-pyrazolo[4,3-c]pyridin-3-yl]-N-methylformamido}ethyl)acetamide] | 1 to 25 | < 100 | > 10
12 | CN(CCS(C)(=O)=O)C(=O)c1n[nH]c2c1CN(C(=O)c1cc3ccccc3[nH]1)CC2 [Example 150, 5-(1H-indole-2-carbonyl)-N-(2-methanesulfonylethyl)-N-methyl-1H,4H,5H,6H,7H-pyrazolo[4,3-c]pyridine-3-carboxamide] | 1 to 25 | < 100 | > 10
13 | O=C(c1cc2ccccc2[nH]1)N1CCc2[nH]nc(C(=O)N3C[C@H]4CCO[C@H]4C3)c2C1 [Example 152, 2-{3-[(3aR,6aR)-hexahydro-2H-furo[2,3-c]pyrrole-5-carbonyl]-1H,4H,5H,6H,7H-pyrazolo[4,3-c]pyridine-5-carbonyl}-1H-indole] | 1 to 25 | < 100 | > 10
14 | O=C(c1cc2ccccc2[nH]1)N1CCc2[nH]nc(C(=O)N3CC4COCC4C3)c2C1 (stereo not drawn) [Example 153, 2-(3-{hexahydro-1H-furo[3,4-c]pyrrole-5-carbonyl}-1H,4H,5H,6H,7H-pyrazolo[4,3-c]pyridine-5-carbonyl)-1H-indole] | 1 to 25 | < 100 | > 10
15 | COCC1(N(C)C(=O)c2n[nH]c3c2CN(C(=O)c2cc4ccccc4[nH]2)CC3)CCC1 [Example 154, 5-(1H-indole-2-carbonyl)-N-[1-(methoxymethyl)cyclobutyl]-N-methyl-1H,4H,5H,6H,7H-pyrazolo[4,3-c]pyridine-3-carboxamide] | < 1 | 5 to 10 | > 10
16 | COCC1(N(C)C(=O)c2n[nH]c3c2CN(C(=O)c2cc4ccccc4[nH]2)CC3)CC1 [Example 155, 5-(1H-indole-2-carbonyl)-N-[1-(methoxymethyl)cyclopropyl]-N-methyl-1H,4H,5H,6H,7H-pyrazolo[4,3-c]pyridine-3-carboxamide] | < 1 | < 5 | > 10
17 | O=C(c1cc2ccccc2[nH]1)N1CCc2[nH]nc(C(=O)N3CC[C@@H](O)C3)c2C1 [Example 156, (3R)-1-[5-(1H-indole-2-carbonyl)-1H,4H,5H,6H,7H-pyrazolo[4,3-c]pyridine-3-carbonyl]pyrrolidin-3-ol] | 1 to 25 | < 100 | > 10
18 | O=C(c1cc2ccccc2[nH]1)N1CCc2[nH]nc(C(=O)N3CC[C@H](O)C3)c2C1 [Example 157, (3S)-1-[5-(1H-indole-2-carbonyl)-1H,4H,5H,6H,7H-pyrazolo[4,3-c]pyridine-3-carbonyl]pyrrolidin-3-ol] | 1 to 25 | < 100 | > 10
19 | O=C(c1cc2ccccc2[nH]1)N1CCc2[nH]nc(C(=O)N3CCS(=O)(=O)CC3)c2C1 [Example 158, 4-[5-(1H-indole-2-carbonyl)-1H,4H,5H,6H,7H-pyrazolo[4,3-c]pyridine-3-carbonyl]-1lambda6-thiomorpholine-1,1-dione] | 1 to 25 | < 100 | > 10
20 | O=C(c1cc2ccccc2[nH]1)N1CCc2[nH]nc(C(=O)N3CCSCC3)c2C1 [Example 159, 2-[3-(thiomorpholine-4-carbonyl)-1H,4H,5H,6H,7H-pyrazolo[4,3-c]pyridine-5-carbonyl]-1H-indole] | < 1 | < 5 | > 10
21 | COC1CCN(C(=O)c2n[nH]c3c2CN(C(=O)c2cc4ccccc4[nH]2)CC3)CC1 [Example 160, 2-[3-(4-methoxypiperidine-1-carbonyl)-1H,4H,5H,6H,7H-pyrazolo[4,3-c]pyridine-5-carbonyl]-1H-indole] | < 1 | < 100 | > 10
22 | O=C(c1cc2ccccc2[nH]1)N1CCc2[nH]nc(C(=O)N3CCC[C@@H](O)C3)c2C1 [Example 161, (3R)-1-[5-(1H-indole-2-carbonyl)-1H,4H,5H,6H,7H-pyrazolo[4,3-c]pyridine-3-carbonyl]piperidin-3-ol] | < 1 | 5 to 10 | > 10
23 | O=C(c1cc2ccccc2[nH]1)N1CCc2[nH]nc(C(=O)N3CCC[C@H](O)C3)c2C1 [Example 162, (3S)-1-[5-(1H-indole-2-carbonyl)-1H,4H,5H,6H,7H-pyrazolo[4,3-c]pyridine-3-carbonyl]piperidin-3-ol] | 1 to 25 | < 100 | > 10
24 | CC(=O)N1CCN(C(=O)c2n[nH]c3c2CN(C(=O)c2cc4ccccc4[nH]2)CC3)C(C)(C)C1 [Example 163, 1-{4-[5-(1H-indole-2-carbonyl)-1H,4H,5H,6H,7H-pyrazolo[4,3-c]pyridine-3-carbonyl]-3,3-dimethylpiperazin-1-yl}ethan-1-one] | 1 to 25 | < 100 | > 10
25 | CC1(C)CCCCN1C(=O)c1n[nH]c2c1CN(C(=O)c1cc3ccccc3[nH]1)CC2 [Example 165, 2-[3-(2,2-dimethylpiperidine-1-carbonyl)-1H,4H,5H,6H,7H-pyrazolo[4,3-c]pyridine-5-carbonyl]-1H-indole] | < 1 | 5 to 10 | > 10
26 | COCC1(N(C)C(=O)c2n[nH]c3c2CN(C(=O)c2cc4ccc(F)cc4[nH]2)CC3)CC1 [Example 166, 5-(6-fluoro-1H-indole-2-carbonyl)-N-[1-(methoxymethyl)cyclopropyl]-N-methyl-1H,4H,5H,6H,7H-pyrazolo[4,3-c]pyridine-3-carboxamide] | < 1 | < 5 | > 10
27 | O=C(c1cc2ccccc2[nH]1)N1CCc2[nH]nc(C3CCC3)c2C1 [Example 167, 2-{3-cyclobutyl-1H,4H,5H,6H,7H-pyrazolo[4,3-c]pyridine-5-carbonyl}-1H-indole] | < 1 | < 5 | > 10
